Measurements published in patent US9758492B2, “IDO inhibitors” (Bristol-Myers Squibb Company, priority 2013, dated 2017).

These compounds were tested against T1, Human IDO1 (Homo sapiens, UniProt P14902) (assay: IDO Kynurenine Assay with Human IDO1/HEK293 Cells). Details: read-out: HEK human IDO-1 (IC50).
T1 construct: expressed in transfected cells; host or cells: HEK293
T1 sequence (P14902 whole entry): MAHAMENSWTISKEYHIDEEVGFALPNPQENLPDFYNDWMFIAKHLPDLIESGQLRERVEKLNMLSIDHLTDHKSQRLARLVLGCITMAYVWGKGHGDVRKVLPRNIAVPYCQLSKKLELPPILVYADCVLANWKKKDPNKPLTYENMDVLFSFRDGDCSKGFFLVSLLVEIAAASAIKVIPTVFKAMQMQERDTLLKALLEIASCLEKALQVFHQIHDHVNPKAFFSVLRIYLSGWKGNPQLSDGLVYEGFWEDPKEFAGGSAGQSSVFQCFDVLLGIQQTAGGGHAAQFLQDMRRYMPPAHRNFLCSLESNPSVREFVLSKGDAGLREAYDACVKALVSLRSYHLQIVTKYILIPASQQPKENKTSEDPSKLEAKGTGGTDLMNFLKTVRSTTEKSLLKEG
Type: cell-based
Description: IDO Kynurenine Assay with Human IDO1/HEK293 Cells
Human IDO1/HEK293 cells were seeded at 10,000 cells per 50 uL per well with RPMI/phenol red free media contains 10% FBS in a 384-well black wall clear bottom tissue culture plate (Matrix Technologies LLC) 125 nL of certain concentration of compound was then added to each well using ECHO liquid handling systems. The cells were incubated for 20 hours in 37° C. incubator with 5% CO2.
The compound treatments were stopped by adding Trichloroacetic Acid (Sigma-Aldrich) to a final concentration at 0.2%. The cell plate was further incubated at 50° C. for 30 minute. The equal volume supernatant (20 uL) and 0.2% (w/v) Ehrlich reagent (4-dimethylaminobenzaldehyde, Sigma-Aldrich) in glacial acetic acid were mixed in a new clear bottom 384-well plate. This plate was then incubated at room temperature for 30 minute. The absorbance at 490 nm was measured on Envision plate reader.
Compound IC50 values were calculated using the counts of 500 nM of a reference standard treatment as one hundred percent inhibition, and counts of no compound but DMSO treatment as zero percent inhibition.
CC(C)CN(c1c(F)cc(-c2ccccc2-c2nnn[nH]2)cc1NC(=O)Nc1ccc(Cl)cc1F)C1CCCCC1 [Example 436] showed an IC50 of 1.16 nM. Work on Cc1ccc(NC(=O)Nc2cc(-c3ccccc3C(=O)O)cc(F)c2N(CC(C)C)C2CCCCC2)cc1 [Example 437] yielded an IC50 of 3.13 nM. In the case of CC(C)CN(c1c(F)cc(-c2ccccc2C(=O)O)cc1NC(=O)Nc1ccc(Cl)cc1F)C1CCCCC1 [Example 438], the IC50 is reported as 1.67 nM. CCC(CC)N(CC(C)C)c1ccc(-c2cc(F)ccc2C(=O)O)cc1NC(=O)Nc1ccc(C)cc1 [Example 439] gave an IC50 of 10 nM. In the case of CCC(CC)N(CC(C)C)c1ccc(-c2ccccc2C(=O)O)cc1NC(=O)Nc1ccc(Cl)cc1F [Example 440], the IC50 is reported as 1.55 nM. CCC(CC)N(CC(C)C)c1ccc(-c2ccccc2-c2nnn[nH]2)cc1NC(=O)Nc1ccc(Cl)cc1F [Example 441] was tested, and the IC50 was 1.14 nM. Work on CCC(CC)N(CC(C)C)c1ccc(-c2cc(F)ccc2C(=O)O)cc1NC(=O)Nc1ccc(Cl)cc1F [Example 442] yielded an IC50 of 2.23 nM. CCC(CC)N(CC(C)C)c1ccc(-c2ccccc2C(=O)O)cc1NC(=O)Nc1ccc(C)cc1 [Example 443] showed an IC50 of 10 nM. CCC(CC)N(CC(C)C)c1ccc(-c2ccccc2-c2nnn[nH]2)cc1NC(=O)Nc1ccc(C)cc1 [Example 444] showed an IC50 of 3.21 nM. COCCN(c1ccc(-c2ccccc2C(=O)O)cc1NC(=O)Nc1ccc(C)cc1)C1CCCCC1 [Example 445] showed an IC50 of 50 nM. For COCCN(c1ccc(-c2ccccc2-c2nnn[nH]2)cc1NC(=O)Nc1ccc(C)cc1)C1CCCCC1 [Example 446], the IC50 was 2.45 nM. With COCCN(c1ccc(-c2cc(F)ccc2C(=O)O)cc1NC(=O)Nc1ccc(C)cc1)C1CCCCC1 [Example 447] the IC50 was 60 nM. CCC(CC)N(CC(C)C)c1ccc(-c2ccccc2C(=O)O)cc1NC(=O)Nc1ccccc1F [Example 448] was tested, and the IC50 was 1.56 nM. With CCC(CC)N(CC(C)C)c1ccc(-c2ccccc2-c2nnn[nH]2)cc1NC(=O)Nc1ccccc1F [Example 449] the IC50 was 1.41 nM. CCC(CC)N(CC(C)C)c1ccc(-c2cc(F)ccc2C(=O)O)cc1NC(=O)Nc1ccccc1F [Example 450] was tested, and the IC50 was 5.47 nM. Compound COCCN(c1ccc(-c2cc(F)ccc2C(=O)O)cc1NC(=O)Nc1ccc(Cl)cc1F)C1CCCCC1 [Example 451] has an IC50 of 1.74 nM. Compound COCCN(c1ccc(-c2ccccc2-c2nnn[nH]2)cc1NC(=O)Nc1ccc(Cl)cc1F)C1CCCCC1 [Example 452] has an IC50 of 0.661 nM. CC(C)CN(CC(C)C)c1ccc(-c2ccccc2-c2nnn[nH]2)cc1NC(=O)Nc1ccc(OC(F)F)cc1 [Example 453] was tested, and the IC50 was 9.9 nM. Work on CCOc1ccc(NC(=O)Nc2cc(-c3ccccc3-c3nnn[nH]3)ccc2N(CC(C)C)CC(C)C)cc1 [Example 454] yielded an IC50 of 2.35 nM. CC(C)CN(CC(C)C)c1ccc(-c2ccccc2-c2nnn[nH]2)cc1NC(=O)Nc1ccc(C(C)C)cc1 [Example 455] gave an IC50 of 510 nM. With COCCN(c1ccc(-c2ccccc2C(=O)O)cc1NC(=O)Nc1ccc(Cl)cc1F)C1CCCCC1 [Example 456] the IC50 was 0.863 nM. In the case of CC(C)CN(CC(C)C)c1ccc(-c2ccccc2-c2nnn[nH]2)cc1NC(=O)Nc1ccc(CC#N)cc1 [Example 457], the IC50 is reported as 370 nM. For CC(C)CN(CC(C)C)c1ccc(-c2ccccc2-c2nnn[nH]2)cc1NC(=O)Nc1ccc2c(c1)CCC2 [Example 458], the IC50 was 140 nM. With CCc1ccc(NC(=O)Nc2cc(-c3ccccc3-c3nnn[nH]3)ccc2N(CC(C)C)CC(C)C)cc1 [Example 459] the IC50 was 7.09 nM. Compound C=C(C)CN(c1ccc(-c2ccccc2C(=O)O)cc1NC(=O)Nc1ccc(C)cc1)C1CCCCC1 [Example 460] has an IC50 of 2.4 nM. Compound C=C(C)CN(c1ccc(-c2cc(F)ccc2C(=O)O)cc1NC(=O)Nc1ccc(C)cc1)C1CCCCC1 [Example 461] has an IC50 of 4.24 nM. Work on C=C(C)CN(c1ccc(-c2ccccc2-c2nnn[nH]2)cc1NC(=O)Nc1ccc(C)cc1)C1CCCCC1 [Example 462] yielded an IC50 of 1.11 nM. Work on CC(C)CN(CC(C)C)c1ccc(-c2ccccc2-c2nnn[nH]2)cc1NC(=O)Nc1ccc(N(C)C)cc1 [Example 463] yielded an IC50 of 20 nM. Work on CC(C)CN(CC(C)C)c1ccc(-c2ccccc2-c2nnn[nH]2)cc1NC(=O)NC1CCCC1 [Example 464] yielded an IC50 of 790 nM. Cc1ccc(NC(=O)Nc2cc(-c3ccccc3-c3nnn[nH]3)ccc2N(CCOC(C)C)CC(C)C)cc1 [Example 465] gave an IC50 of 200 nM. Cc1ccc(NC(=O)Nc2cc(-c3cc(F)ccc3C(=O)O)ccc2N(CCOC(C)C)CC(C)C)cc1 [Example 466] showed an IC50 of 1740 nM. With Cc1ccc(NC(=O)Nc2cc(-c3ccccc3-c3nnn[nH]3)ccc2N(CCCC(F)(F)F)C2CCCCC2)cc1 [Example 467] the IC50 was 10 nM. [2H]C([2H])(C(C)C)N(c1ccc(-c2cc(F)ccc2C(=O)O)cc1NC(=O)Nc1ccc(C)cc1)C([2H])([2H])C(C)C [Example 477] gave an IC50 of 7.65 nM. Work on [2H]C([2H])(C(C)C)N(c1ccc(-c2ccccc2C(=O)O)cc1NC(=O)Nc1ccc(C)cc1)C([2H])([2H])C(C)C [Example 478] yielded an IC50 of 10 nM. CC(C)CN(c1cc(F)c(-c2cc(F)ccc2C(=O)O)cc1NC(=O)Nc1ccc(OC(F)(F)F)cc1)C1CCCCC1 [Example 485] was tested, and the IC50 was 5.75 nM. Compound CC(C)CN(c1cc(F)c(-c2cc(F)ccc2C(=O)O)cc1NC(=O)Nc1cncnc1)C1CCCCC1 [Example 486] has an IC50 of 30 nM. In the case of CC(C)CN(c1ccc(-c2cc(F)ccc2C(=O)O)cc1NC(=O)Nc1cnc2c(c1)ncn2C)C1CCCCC1 [Example 487], the IC50 is reported as 1050 nM. Compound CC(C)CN(c1ccc(-c2cc(F)ccc2C(=O)O)cc1NC(=O)Nc1ccc(C#N)nc1)C1CCCCC1 [Example 488] has an IC50 of 3.46 nM. With CC(C)CN(CC(C)C)c1ccc(-c2ccccc2-c2nnn[nH]2)cc1NC(=O)Nc1ccc(C#N)nc1 [Example 489] the IC50 was 220 nM. Work on Cc1ccc(NC(=O)Nc2cc(-c3cccc(Cl)c3C(=O)O)ccc2N(CC(C)C)CC(C)C)cc1 [Example 492] yielded an IC50 of 160 nM. Compound Cc1ccc(NC(=O)Nc2cc(-c3cc(Cl)ccc3C(=O)O)ccc2N(CC(C)C)CC(C)C)cc1 [Example 493] has an IC50 of 120 nM. Compound COc1ccc(-c2ccc(N(CC(C)C)CC(C)C)c(NC(=O)Nc3ccc(Cl)cc3F)c2)c(C(=O)O)c1 [Example 494] has an IC50 of 30 nM. Cc1ccc(NC(=O)Nc2cc(-c3cccc(OC(F)(F)F)c3C(=O)O)ccc2N(CC(C)C)CC(C)C)cc1 [Example 495] showed an IC50 of 50 nM. CC(C)CN(CC(C)C)c1ccc(-c2cccc(OC(F)(F)F)c2C(=O)O)cc1NC(=O)Nc1ccc(Cl)cc1F [Example 496] showed an IC50 of 10 nM. For COc1ccc(-c2ccc(N(CC(C)C)CC(C)C)c(NC(=O)Nc3ccc(C)cc3)c2)c(C(=O)O)c1 [Example 497], the IC50 was 230 nM. COc1ccc(-c2ccc(N(CC(C)C)CC(C)C)c(NC(=O)Nc3ccc(C#N)nc3)c2)c(C(=O)O)c1 [Example 498] was tested, and the IC50 was 590 nM. Work on COc1cccc(-c2ccc(N(CC(C)C)CC(C)C)c(NC(=O)Nc3ccc(C#N)nc3)c2)c1C(=O)O [Example 499] yielded an IC50 of 1260 nM. Work on COc1cccc(-c2ccc(N(CC(C)C)CC(C)C)c(NC(=O)Nc3ccc(Cl)cc3F)c2)c1C(=O)O [Example 500] yielded an IC50 of 20 nM. With CC(C)CN(CC(C)C)c1ccc(-c2cccc(OC(F)(F)F)c2C(=O)O)cc1NC(=O)Nc1ccc(C#N)nc1 [Example 501] the IC50 was 320 nM. Work on Cc1c(Br)cc(NC(=O)Nc2cc(-c3cc(F)ccc3C(=O)O)ccc2N(CC(C)C)C2CCCCC2)cc1Br [Example 507, 4′-(Cyclohexyl(isobutyl)amino)-3′-(3-(3,5-dibromo-4-methylphenyl)ureido)-5-fluoro-[1,1′-biphenyl]-2-carboxylic acid] yielded an IC50 of 2870 nM. Cc1cc(NC(=O)Nc2cc(-c3ccccc3-c3nnn[nH]3)ccc2N(C2CC2)C2CC2)no1 [Example 509, 1-(4-(Dicyclopropylamino)-2′-(1H-tetrazol-5-yl)-[1,1′-biphenyl]-3-yl)-3-(5-methylisoxazol-3-yl)urea] showed an IC50 of 6630 nM. Work on CC(C)CN(c1cc(F)c(-c2cc(F)ccc2C(=O)O)cc1NC(=O)Nc1ccn(C)n1)C1CCCCC1 [Example 515, 4′-(Cyclohexyl(isobutyl)amino)-2′,5-difluoro-5′-(3-(1-methyl-1H-pyrazol-3-yl)ureido)-[1,1′-biphenyl]-2-carboxylic acid] yielded an IC50 of 4220 nM. For Cc1cccc(NC(=O)Nc2cc(-c3cc(F)ccc3C(=O)O)c(F)cc2N(CC(C)C)C2CCCCC2)c1 [Example 516, 4′-(Cyclohexyl(isobutyl)amino)-2′,5-difluoro-5′-(3-(m-tolyl)ureido)-[1,1′-biphenyl]-2-carboxylic acid], the IC50 was 50 nM. CC(C)CN(c1cc(F)c(-c2cc(F)ccc2C(=O)O)cc1NC(=O)Nc1ccc(C(F)(F)F)nc1)C1CCCCC1 [Example 517, 4′-(Cyclohexyl(isobutyl)amino)-2′,5-difluoro-5′-(3-(6-(trifluoromethyl)pyridin-3-yl)ureido)-[1,1′-biphenyl]-2-carboxylic acid] was tested, and the IC50 was 70 nM. With Cc1cc(NC(=O)Nc2cc(-c3cc(F)ccc3C(=O)O)c(F)cc2N(CC(C)C)C2CCC(F)(F)CC2)no1 [Example 518, 4′-((4,4-Difluorocyclohexyl)(isobutyl)amino)-2′,5-difluoro-5′-(3-(5-methylisoxazol-3-yl)ureido)-[1,1′-biphenyl]-2-carboxylic acid] the IC50 was 20 nM. With Cc1ccc(NC(=O)Nc2cc(-c3cc(F)ccc3C(=O)O)c(F)cc2N(CC(C)C)C2CCC(F)(F)CC2)cc1 [Example 519, 4′-((4,4-Difluorocyclohexyl)(isobutyl)amino)-2′,5-difluoro-5′-(3-(p-tolyl)ureido)-[1,1′-biphenyl]-2-carboxylic acid] the IC50 was 6.91 nM.
